Measurements reported in patent US10703746B2, “Mutant IDH1 inhibitors useful for treating cancer” (THE UNITED STATES OF AMERICA, AS REPRESENTED BY THE …, priority 2014, dated 2020).

Legend:
IDH1 R132H = IDH1 R132H (Homo sapiens, UniProt O75874, R132H); assay: IDH1 R132H enzymatic assay (NADPH depletion coupled to diaphorase/resazurin); assay type: biochemical
Description: (§1) Assays were conducted in a 1536-well black solid-bottom plate with a final assay volume of 9 μL.
Specifically, for IDH1 R132H, 3 μL of enzyme (4 mM β-ME, 0.0005 mg/mL IDH1 R132H, 150 mM NaCl, 20 mM Tris pH 7.5, 10 mM MgCl2, 0.05% BSA) were added to the plate, followed by the addition of 23 nL of test compound in DMSO. The plate was lidded and incubated at room temperature for 30 minutes at which time 3 μL of substrate were added (0.016 mM NADPH, 2 mM α-KG, 150 mM NaCl, 20 mM Tris pH 7.5, 10 mM MgCl2, 0.05% BSA). This reaction was incubated at room-temperature for 60 minutes at which time the detection mix was added (0.06 mg/mL diaphorase, 0.036 mM resazurin, 150 mM NaCl, 20 mM Tris pH 7.5, 10 mM MgCl2, 0.05% BSA). […]

IDH1 R132C = IDH1 R132C (Homo sapiens, UniProt O75874, R132C); assay: IDH1 R132C enzymatic assay (NADPH depletion coupled to diaphorase/resazurin); assay type: biochemical
IDH1 R132C, sequence (O75874 whole entry R132C): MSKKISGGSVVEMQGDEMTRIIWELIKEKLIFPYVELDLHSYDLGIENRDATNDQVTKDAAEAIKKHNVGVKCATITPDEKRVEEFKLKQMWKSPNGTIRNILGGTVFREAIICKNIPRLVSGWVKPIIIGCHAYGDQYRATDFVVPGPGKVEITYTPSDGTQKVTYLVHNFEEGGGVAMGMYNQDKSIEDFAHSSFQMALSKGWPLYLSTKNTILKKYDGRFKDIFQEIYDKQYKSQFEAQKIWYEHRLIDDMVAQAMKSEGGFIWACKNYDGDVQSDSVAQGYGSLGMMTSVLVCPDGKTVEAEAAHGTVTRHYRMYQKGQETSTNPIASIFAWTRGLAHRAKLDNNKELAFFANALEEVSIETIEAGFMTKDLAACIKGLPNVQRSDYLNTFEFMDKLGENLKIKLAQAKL
Description: as §1
For IDH1 R132C, 3 μL of enzyme (0.00032 mg/mL IDH1 […], 10% glycerol, 50 mM potassium phosphate pH 6.5, 5 mM MgCl2, 0.03% BSA) were added to the plate, followed by the addition of 23 nL of test compound in DMSO. The plate was lidded and incubated at room temperature for 30 minutes at which time 3 μL of substrate were added (0.012 mM NADPH, 0.6 mM α-KG, 10% glycerol, 50 mM potassium phosphate pH 6.5, 5 mM MgCl2, 0.03% BSA). […]

[1] = IDH1 R132H enzymatic inhibition, IC50 class
[2] = IDH1 R132C enzymatic inhibition, IC50 class
[3] = enzymatic inhibition, IDH1 R132H
[4] = enzymatic inhibition, IDH1 R132C

IDH1 R132H, sequence (O75874 whole entry R132H): as the sequence (O75874 whole entry R132C) above, with C132H counted along it

| SMILES | IC50 (IDH1 R132H; [1]) [nM] | IC50 (IDH1 R132C; [2]) [nM] | IC50 (IDH1 R132H; [3]) [nM] | IC50 (IDH1 R132C; [4]) [nM] |
| --- | --- | --- | --- | --- |
| CCc1cccc(CC)c1-n1c(CC(C)C)c(C(=O)N2CCNCC2)cc(-c2nc(-c3ccc(C(=O)NC4CCCC4)cc3)c(C)s2)c1=O [Compound 188] | 5000 to 20000 | 5000 to 20000 | – | – |
| COc1ccc(OC)c(-n2c3c(cc(-c4cccc(-c5ccc(Cl)cc5)c4)c2=O)C(=O)CC(C)(C)C3)c1 [Compound 111] | > 20000 | 5000 to 20000 | – | – |
| COc1ccc(OC)c(-n2c3c(cc(-c4nc(C)cs4)c2=O)C(=O)CC(C)(C)C3)c1 [Compound 124] | > 20000 | 5000 to 20000 | – | – |
| COc1ccc(OC)c(-n2c3c(cc(-n4ccc(-c5ccccc5)n4)c2=O)C(=O)CC(C)(C)C3)c1 [Compound 191] | 1000 to 5000 | 1000 to 5000 | – | – |
| CCc1cccc(CC)c1-n1c(CC(C)C)c(C(=O)N2CCNCC2)cc(-c2nc(-c3ccc(N4CCNCC4)cc3)c(C)s2)c1=O [Compound 137] | > 20000 | > 20000 | – | – |
| CC1(C)CC(=O)c2cc(-c3nc(-c4ccc(Cl)cc4)cs3)c(=O)n(C3CCCc4ccccc43)c2C1 (stereo not shown) [Compound 19] | > 20000 | 300 to 1000 | – | – |
| CC1(C)CC(=O)c2cc(-c3nc(-c4ccc(Cl)cc4)cs3)c(=O)n(-c3ccccc3Cl)c2C1 [Compound 167] | < 300 | < 300 | – | – |
| CCc1cccc(Cl)c1-n1c(C=C(C)C)c(C(=O)N2CCNCC2)cc(-c2nc(-c3ccc(Cl)cc3)cs2)c1=O [Compound 448] | – | – | < 300 | < 300 |
| CCc1cccc(CC)c1-n1c2c(cc(-c3nc(C4=CCN(C)CC4)c(C)s3)c1=O)C(=O)CC(C)(C)C2 [Compound 208] | > 20000 | 5000 to 20000 | – | – |
| CCc1cccc(CC)c1-n1c(CC(C)C)c(C(=O)N2CCNCC2)cc(-c2ccn(Cc3ccc(Cl)cc3)n2)c1=O [Compound 487] | – | – | > 20000 | > 20000 |
| C#Cc1ccccc1-n1c(C=C(C)C)c(C(=O)N2CCNCC2)cc(-c2nc(-c3ccc(Cl)cc3)cs2)c1=O [Compound 558] | – | – | < 300 | < 300 |
| CCc1cccc(CC)c1-n1c(CC(C)C)c(C(=O)N2CCNCC2)cc(-c2nc(-c3ccc(CN4CCOCC4)cc3)c(C)s2)c1=O [Compound 238] | 5000 to 20000 | 5000 to 20000 | – | – |
| COc1ccccc1-n1c2c(cc(-c3nc(-c4ccc(Cl)cc4)cs3)c1=O)C(=O)CCC2 [Compound 503] | – | – | 1000 to 5000 | 1000 to 5000 |
| CCOc1ccc(F)cc1-n1c(CC(C)C)c(C(=O)N2CCNCC2)cc(-c2nc(-c3ccc(C(F)F)cc3)cs2)c1=O [Compound 686] | 300 to 1000 | 300 to 1000 | – | – |
| Cc1cccc(CN2CCN(C)CC2)c1-n1c2c(cc(-c3nc(-c4ccc(Cl)cc4)cs3)c1=O)C(=O)CCC2 [Compound 468] | – | – | 5000 to 20000 | 5000 to 20000 |
| CC1(C)CC(=O)c2cc(-c3nc(-c4ccc(Cl)cc4)cs3)c(=O)n(-c3ccc(Cl)cc3Cl)c2C1 [Compound 441] | – | – | > 20000 | 5000 to 20000 |
| CCc1ccc(Cl)c(CC)c1-n1c(C=C(C)C)c(C(=O)N2CCNCC2)cc(-c2nc(-c3ccc(Cl)cc3)cs2)c1=O [Compound 666] | < 300 | < 300 | – | – |

| SMILES | IC50 (IDH1 R132H; [1]) [nM] | IC50 (IDH1 R132C; [2]) [nM] | IC50 (IDH1 R132H; [3]) [nM] | IC50 (IDH1 R132C; [4]) [nM] |
| --- | --- | --- | --- | --- |
| CC1(C)CC(=O)c2cc(-c3nc(-c4ccc(Cl)cc4)cs3)c(=O)n(-c3ccccc3-c3ccccc3)c2C1 [Compound 295] | 1000 to 5000 | 300 to 1000 | – | – |
| CCc1cccc(CC)c1-n1c2c(cc(-c3nc(-c4cccc(C)c4)cs3)c1=O)C(=O)CC(C)(C)C2 [Compound 240] | 5000 to 20000 | 1000 to 5000 | – | – |
| CCOc1ncc(Cl)cc1-n1c(C=C(C)C)c(C(=O)N2CCNCC2)cc(-c2nc(-c3ccc(Cl)cc3)cs2)c1=O [Compound 575] | – | – | < 300 | < 300 |
| CCOc1cccc(Cl)c1-n1c(C=C(C)C)c(C(=O)N2CCNCC2)cc(-c2nc(-c3ccc(Cl)cc3)cs2)c1=O [Compound 374] | < 300 | < 300 | – | – |
| COc1cccc(C)c1-n1c2c(cc(-c3nc(-c4ccc(Cl)cc4)cs3)c1=O)C(=O)CCC2 [Compound 375] | 1000 to 5000 | 1000 to 5000 | – | – |
| COc1ccc(N)cc1-n1c2c(cc(-c3nc(-c4ccc(Cl)cc4)cs3)c1=O)C(=O)CC(C)(C)C2 [Compound 122] | 1000 to 5000 | 300 to 1000 | – | – |
| Cn1nccc1-n1c2c(cc(-c3nc(-c4ccc(Cl)cc4)cs3)c1=O)C(=O)CC(C)(C)C2 [Compound 382] | 5000 to 20000 | 1000 to 5000 | – | – |
| CC1(C)CC(=O)c2cc(-c3nc(-c4ccc(Cl)cc4)cs3)c(=O)n(-c3ccccn3)c2C1 [Compound 121] | 5000 to 20000 | 5000 to 20000 | – | – |
| Cc1cccc(CO)c1-n1c2c(cc(-c3nc(-c4ccc(Cl)cc4)cs3)c1=O)C(=O)CCC2 [Compound 428] | – | – | 1000 to 5000 | 1000 to 5000 |
| COc1ccc(OC)c(-n2c3c(cc(-n4cc(-c5ccccc5)nn4)c2=O)C(=O)CC(C)(C)C3)c1 [Compound 261] | 5000 to 20000 | 5000 to 20000 | – | – |
| COc1ccc(OC)c(-n2c3c(cc(-c4cccc(-c5ccc(Cl)cc5)n4)c2=O)C(=O)CC(C)(C)C3)c1 [Compound 284] | 5000 to 20000 | 5000 to 20000 | – | – |
| COc1cccc(Cl)c1-n1c(C=C(C)C)c(C(=O)N2CCNCC2)cc(-c2nc(-c3ccc(Cl)cc3)cs2)c1=O [Compound 397] | < 300 | < 300 | – | – |
| CCc1cccc(CC)c1-n1c(CC(C)C)c(C(=O)N2CCNCC2)cc(-c2nc(-c3ccccc3)c(C)s2)c1=O [Compound 81] | < 300 | 300 to 1000 | – | – |
| CC1(C)CC(=O)c2cc(-c3nc(-c4ccc(Cl)cc4)cs3)c(=O)n(-c3sccc3C#N)c2C1 [Compound 402] | – | – | 300 to 1000 | < 300 |
| COc1ccc(OC)c(-n2c3c(cc(-c4nc(-c5ccc(Cl)cc5)cs4)c2=O)C(=O)CC3)c1 [Compound 24] | > 20000 | 5000 to 20000 | – | – |
| CC(C)=Cc1c(C(=O)N2CCNCC2)cc(-c2nc(-c3ccc(Cl)cc3)cs2)c(=O)n1-c1ccccc1 [Compound 341] | 300 to 1000 | 1000 to 5000 | – | – |
| Cc1cccc(O)c1-n1c2c(cc(-c3nc(-c4ccc(Cl)cc4)cs3)c1=O)C(=O)CC(C)(C)C2 [Compound 246] | 1000 to 5000 | 1000 to 5000 | – | – |

The remaining lines, values ahead:

| IC50 (IDH1 R132H; [1]) [nM] | IC50 (IDH1 R132C; [2]) [nM] | IC50 (IDH1 R132H; [3]) [nM] | IC50 (IDH1 R132C; [4]) [nM] | SMILES |
| --- | --- | --- | --- | --- |
| – | – | 300 to 1000 | 300 to 1000 | CCc1cccc(CC)c1-n1c(CC(C)C)c(C(=O)N2CCNCC2)cc(-c2nc(-c3ccc(Cl)cc3)c(C#N)s2)c1=O [Compound 501] |
| 1000 to 5000 | 300 to 1000 | – | – | CCc1cccc(CC)c1-n1c(C)c(C(=O)N2CCN[C@H](CO)C2)cc(-c2nc(-c3ccc(Cl)cc3)cs2)c1=O [Compound 16] |
| 300 to 1000 | < 300 | – | – | CCc1cccc(CC)c1-n1c(CC(C)C)c(C(=O)NC)cc(-c2nc(-c3ccc(Cl)cc3)cs2)c1=O [Compound 33] |
| 1000 to 5000 | 5000 to 20000 | – | – | CCc1cccc(CC)c1-n1c2c(cc(-c3nc(-c4ccc(Cl)cc4)cs3)c1=O)C(=O)NC2 [Compound 74] |
| < 300 | < 300 | – | – | CCc1cccc(CC)c1-n1c(C=C(C)C)c(C(=O)N2CCNC(C)C2)cc(-c2nc(-c3ccc(Cl)cc3)cs2)c1=O (stereo not shown) [Compound 370] |
| 1000 to 5000 | < 300 | – | – | CCc1cccc(CC)c1-n1c(CC(C)C)c(C(=O)N2CCC(CO)CC2)cc(-c2nc(-c3ccc(Cl)cc3)cs2)c1=O [Compound 94] |
| 1000 to 5000 | 300 to 1000 | – | – | CCc1cccc(CC)c1-n1c(CC(C)C)c(C(=O)N2CCN[C@H](C(=O)OC)C2)cc(-c2nc(-c3ccc(Cl)cc3)cs2)c1=O [Compound 2] |
| 1000 to 5000 | 300 to 1000 | – | – | CCc1cccc(CC)c1-n1c(C(C)C)c(C(=O)NC[C@@H](C)O)cc(-c2nc(-c3ccc(Cl)cc3)cs2)c1=O [Compound 101] |
| 5000 to 20000 | 5000 to 20000 | – | – | CCc1cccc(CC)c1-n1c(C)c(C(=O)N2CCCC(C(=O)O)C2)cc(-c2nc(-c3ccc(Cl)cc3)cs2)c1=O (stereo not shown) [Compound 259] |
| 1000 to 5000 | 300 to 1000 | – | – | CCc1cccc(CC)c1-n1c(C)c(C(=O)NC2CCCNC2)cc(-c2nc(-c3ccc(Cl)cc3)cs2)c1=O (stereo not shown) [Compound 114] |
| 1000 to 5000 | 5000 to 20000 | – | – | CCc1cccc(CC)c1-n1c(C)c(C(=O)N2CCC(C(=O)O)CC2)cc(-c2nc(-c3ccc(Cl)cc3)cs2)c1=O [Compound 109] |
| < 300 | < 300 | – | – | CCc1cccc(CC)c1-n1c(CC(C)C)c(C(=O)N2CCN[C@@H](CO)C2)cc(-c2nc(-c3ccc(Cl)cc3)cs2)c1=O [Compound 8] |
| 1000 to 5000 | 1000 to 5000 | – | – | CCc1cccc(CC)c1-n1c(C)c(C(=O)N(C)CCN)cc(-c2nc(-c3ccc(Cl)cc3)cs2)c1=O [Compound 152] |
| 1000 to 5000 | 300 to 1000 | – | – | CCc1cccc(CC)c1-n1c(CC(C)C)c(C(=O)N[C@@H]2CCC[C@H]2O)cc(-c2nc(-c3ccc(Cl)cc3)cs2)c1=O [Compound 217] |
| 300 to 1000 | < 300 | – | – | CCc1cccc(CC)c1-n1c(CC(C)C)c(C(=O)N2CCN[C@H](CO)C2)cc(-c2nc(-c3ccc(Cl)cc3)cs2)c1=O [Compound 283] |
| < 300 | < 300 | – | – | CCc1cccc(CC)c1-n1c(C(C)C)c(C(=O)N2CCN[C@@H](C(=O)O)C2)cc(-c2nc(-c3ccc(Cl)cc3)cs2)c1=O [Compound 28] |
